Measurements taken from patent publication EP1247803A2, “Indolinone compounds suitable for modulation of protein kinases” (Sugen, Inc., priority 1996, dated 1998).

How the values were obtained:
PDGF-R = PDGF-R (Homo sapiens, UniProt P09619); assay: PDGF-R ELISA; format: cell-based
Text: A PDGF-R ELISA is described in International Patent Publication No. WO 96/40116, published December 19, 1996 by Tang et al.

EGFR = molecular target: T1, EGFR (Homo sapiens, UniProt P00533); assay: EGFR ELISA assay (in vitro kinase activity, EGFR captured from A431 cell lysate); format: biochemical; set-up: concentration or dose not given beside the values
T1 construct: Add 7 ug A431 cell lysate per well (EGFR source); endogenous in cells; host or cells: A431
T1 sequence (P00533 25-1210): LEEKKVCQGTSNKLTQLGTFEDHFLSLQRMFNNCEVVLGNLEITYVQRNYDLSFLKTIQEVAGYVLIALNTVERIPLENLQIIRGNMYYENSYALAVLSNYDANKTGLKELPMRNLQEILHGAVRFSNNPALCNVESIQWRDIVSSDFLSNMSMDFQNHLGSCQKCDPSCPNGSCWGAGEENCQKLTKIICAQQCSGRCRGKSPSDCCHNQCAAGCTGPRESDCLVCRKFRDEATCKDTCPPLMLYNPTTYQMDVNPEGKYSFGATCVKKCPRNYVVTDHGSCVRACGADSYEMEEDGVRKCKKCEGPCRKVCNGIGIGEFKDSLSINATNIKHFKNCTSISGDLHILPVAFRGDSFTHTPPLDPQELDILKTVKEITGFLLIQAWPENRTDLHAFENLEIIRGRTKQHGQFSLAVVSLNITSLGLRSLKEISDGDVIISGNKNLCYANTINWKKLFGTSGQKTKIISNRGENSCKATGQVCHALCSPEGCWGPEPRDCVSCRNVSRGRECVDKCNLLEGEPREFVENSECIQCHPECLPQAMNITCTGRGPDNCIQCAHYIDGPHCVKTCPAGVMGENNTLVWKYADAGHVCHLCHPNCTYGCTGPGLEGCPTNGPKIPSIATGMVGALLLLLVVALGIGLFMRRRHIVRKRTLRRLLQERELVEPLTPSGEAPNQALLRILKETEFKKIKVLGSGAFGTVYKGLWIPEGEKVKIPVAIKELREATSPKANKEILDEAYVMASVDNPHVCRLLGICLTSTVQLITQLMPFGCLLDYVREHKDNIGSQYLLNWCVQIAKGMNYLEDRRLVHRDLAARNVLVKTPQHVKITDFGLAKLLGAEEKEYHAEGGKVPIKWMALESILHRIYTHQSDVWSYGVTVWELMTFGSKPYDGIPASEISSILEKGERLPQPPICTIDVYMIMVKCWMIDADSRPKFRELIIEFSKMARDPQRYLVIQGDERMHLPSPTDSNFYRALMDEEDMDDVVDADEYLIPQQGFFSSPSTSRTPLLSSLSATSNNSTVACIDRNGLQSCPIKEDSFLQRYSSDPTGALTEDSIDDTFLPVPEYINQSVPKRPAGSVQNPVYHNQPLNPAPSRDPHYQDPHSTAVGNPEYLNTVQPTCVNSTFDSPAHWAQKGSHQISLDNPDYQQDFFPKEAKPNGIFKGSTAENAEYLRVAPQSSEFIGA
Method in brief: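 EGFR from A431 lysate was captured on anti-EGFR antibody-coated plates and preincubated with compounds for 30 min. Autophosphorylation ran 5 min with 3 uM ATP and 5 mM MnCl2 (final), stopped with 20 mM EDTA. Phosphotyrosine was detected by anti-pTyr ELISA with ABTS/H2O2, read at 410 nm.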

MET = MET biochemical kinase assay; set-up: species or system human; concentration or dose not given beside the values
Method in brief: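 Lysate-derived MET, or chimeric receptors, is immobilised on plates through an antibody to the human MET cytoplasmic region. Compounds are added along with kinase buffer supplying ATP and divalent metal ions, and receptor autophosphorylation is quantified by anti-phosphotyrosine ELISA.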

Chain of PDGF-R (P09619 33-1106, species assumed): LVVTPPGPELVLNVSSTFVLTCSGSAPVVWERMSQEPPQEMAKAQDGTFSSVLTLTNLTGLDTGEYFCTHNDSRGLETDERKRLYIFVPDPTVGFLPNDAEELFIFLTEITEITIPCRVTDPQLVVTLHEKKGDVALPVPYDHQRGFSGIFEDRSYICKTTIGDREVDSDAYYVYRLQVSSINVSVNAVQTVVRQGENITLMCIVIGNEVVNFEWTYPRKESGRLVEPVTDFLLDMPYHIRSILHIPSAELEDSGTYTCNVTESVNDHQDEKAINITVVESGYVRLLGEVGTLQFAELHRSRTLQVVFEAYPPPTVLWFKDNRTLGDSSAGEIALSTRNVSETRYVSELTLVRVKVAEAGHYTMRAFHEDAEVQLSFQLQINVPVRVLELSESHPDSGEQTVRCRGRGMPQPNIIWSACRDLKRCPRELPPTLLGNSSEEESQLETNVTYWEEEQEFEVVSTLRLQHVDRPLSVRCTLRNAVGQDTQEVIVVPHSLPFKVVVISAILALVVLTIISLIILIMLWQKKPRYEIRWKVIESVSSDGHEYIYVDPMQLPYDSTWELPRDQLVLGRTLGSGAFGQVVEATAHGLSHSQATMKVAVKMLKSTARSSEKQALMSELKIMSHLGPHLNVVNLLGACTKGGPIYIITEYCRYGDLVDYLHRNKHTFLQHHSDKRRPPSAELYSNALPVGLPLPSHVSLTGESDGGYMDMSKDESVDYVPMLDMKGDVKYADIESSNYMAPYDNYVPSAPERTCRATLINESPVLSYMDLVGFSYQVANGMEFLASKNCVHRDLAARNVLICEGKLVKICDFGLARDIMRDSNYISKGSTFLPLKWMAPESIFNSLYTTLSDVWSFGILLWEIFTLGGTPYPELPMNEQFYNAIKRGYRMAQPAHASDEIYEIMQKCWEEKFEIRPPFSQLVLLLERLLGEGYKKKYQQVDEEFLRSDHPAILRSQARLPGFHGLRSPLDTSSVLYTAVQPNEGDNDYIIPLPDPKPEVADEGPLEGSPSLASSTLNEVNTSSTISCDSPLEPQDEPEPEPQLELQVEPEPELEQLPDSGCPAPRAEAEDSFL

Compound	PDGF Kinase %Inhibition (PDGF-R)	Biochem EGFR %Inhibition (EGFR)	Met Kinase % Inhibition (MET)
O=C1Nc2ccc(I)cc2C1=Cc1c(Br)cnn1-c1ccc(Cl)cc1 [10725/B10]	26.0%	53.3%	69.9%
COc1ccc(Br)c(C=C2C(=O)Nc3ccc(I)cc32)c1O [10725/B03]	7.8%	-15.3%	70.8%
O=C1Nc2ccc(CCCl)cc2C1=Cc1ccc(O)c([N+](=O)[O-])c1 [10724/G03]	-2.7%	7.8%	36.7%
CCc1ccc(C=C2C(=O)Nc3ccc(CCCl)cc32)o1 [10724/G10]	-15.9%	-10.6%	62.8%
CN(C)c1ccc(C=C2C(=O)Nc3c(Br)cc(Br)cc32)c2ccccc12 [10724/A02]	6.3%	36.7%	61.7%
COc1cc(C)cc(O)c1C=C1C(=O)Nc2c(Br)cc(Br)cc21 [10725/A06]	40.9%	-9.5%	71.7%
Cc1c(Br)ccc2c1C(=Cc1cc3c4c(c1O)CCCN4CCC3)C(=O)N2 [10724/C05]	20.3%	-0.8%	67.7%
CC(C)(C)c1cc(C=C2C(=O)Nc3ccc(CCCl)cc32)c(O)c(C(C)(C)C)c1 [10723/G11]	-7.7%	-35.0%	39.4%
O=C1Nc2ccc(S(=O)(=O)N3CCOCC3)cc2C1=Cc1c[nH]c2ccccc12 [10717/F06]	–	-22.8%	49.0%
COC(=O)Cc1c(Cl)[nH]c(C=C2C(=O)Nc3c(Br)cc(Br)c(C)c32)c1C(=O)OC [10725/A09]	29.4%	4.9%	44.3%
O=C1Nc2ccc(CCCl)cc2C1=Cc1cccn1-c1ccc(Cl)cc1 [10724/G09]	-18.0%	-21.7%	-2.8%
Cn1cccc1C=C1C(=O)Nc2ccc(S(=O)(=O)N3CCOCC3)cc21 [10717/F04]	–	-15.7%	11.4%
O=C1Nc2ccc(I)cc2C1=Cc1ccc(O)c([N+](=O)[O-])c1 [10724/B03]	14.7%	14.9%	51.0%
CNS(=O)(=O)c1ccc2c(c1)C(=Cc1ccc([N+](=O)[O-])c(O)c1)C(=O)N2 [10724/D04]	-1.3%	5.4%	70.5%
Cc1c(Br)ccc2c1C(=Cc1ccc([N+](=O)[O-])c(O)c1)C(=O)N2 [10724/C04]	24.4%	13.2%	84.3%
O=C1Nc2ccc(I)cc2C1=Cc1c[nH]cn1 [10725/B11]	66.3%	43.0%	76.3%
O=C1Nc2ccc(S(=O)(=O)N3CCOCC3)cc2C1=Cc1cccs1 [10717/F03]	–	-4.7%	42.8%
O=CN1CCN(c2ccc(C=C3C(=O)Nc4c(Br)cc(Br)cc43)cc2)CC1 [10725/A07]	17.9%	18.2%	59.3%
Cc1[nH]c(C=C2C(=O)Nc3ccc(S(=O)(=O)Nc4ccc(C(F)(F)F)cc4)cc32)c(Br)c1Br [10717/E11]	–	44.9%	75.1%

Compound	PDGF Kinase %Inhibition (PDGF-R)	Biochem EGFR %Inhibition (EGFR)	Met Kinase % Inhibition (MET)
O=C1Nc2c(Br)cc(Br)cc2C1=Cc1ccc([N+](=O)[O-])c(O)c1 [10724/A04]	5.0%	15.4%	62.6%
CN(C)c1ccc(C=C2C(=O)Nc3ccc(S(=O)(=O)Nc4ccc(C(F)(F)F)cc4)cc32)c2ccccc12 [10724/E02]	-54.2%	39.8%	55.4%
CNS(=O)(=O)c1ccc2c(c1)C(=Cc1sc3scc(C)c3c1C)C(=O)N2 [10724/D11]	29.3%	12.9%	20.3%
CC(C)c1cc(C=C2C(=O)Nc3ccc(S(=O)(=O)Nc4ccc(C(F)(F)F)cc4)cc32)cc(C(C)C)c1O [10724/E06]	6.3%	1.6%	25.8%
O=CN1CCN(c2ccc(C=C3C(=O)Nc4ccc(I)cc43)cc2)CC1 [10725/B07]	100.8%	45.8%	74.0%
Cc1c(Br)cc(Br)c2c1C(=Cc1c[nH]cn1)C(=O)N2 [10725/A11]	18.9%	14.6%	49.1%
O=C1Nc2ccc(S(=O)(=O)Nc3ccc(C(F)(F)F)cc3)cc2C1=Cc1cc2ccccc2o1 [10724/E07]	0.1%	9.4%	46.8%
O=C1Nc2c(Br)cc(Br)cc2C1=Cc1cccn1-c1ccc(Cl)cc1 [10724/A09]	19.6%	1.6%	37.5%
Cc1c(Br)ccc2c1C(=Cc1cc3ccccc3o1)C(=O)N2 [10724/C07]	22.3%	9.4%	14.2%
CN(C)c1ccc(C=C2C(=O)Nc3ccc(CCCl)cc32)c2ccccc12 [10724/G02]	-7.6%	42.5%	44.9%
Cn1cccc1C=C1C(=O)Nc2c(Br)cc(Br)cc21 [10717/A04]	–	29.0%	37.4%
Cc1csc2sc(C=C3C(=O)Nc4ccc(S(=O)(=O)Nc5ccc(C(F)(F)F)cc5)cc43)c(C)c12 [10724/E11]	5.0%	-26.8%	39.3%
COc1ccc(Br)c(C=C2C(=O)Nc3c(Br)cc(Br)cc32)c1O [10725/A03]	5.9%	-38.2%	68.0%
Cc1c(Br)cc(Br)c2c1C(=Cc1c(Br)cnn1-c1ccc(Cl)cc1)C(=O)N2 [10725/A10]	33.7%	14.0%	43.2%
Cc1c(Br)ccc2c1C(=Cc1ccc(O)c([N+](=O)[O-])c1)C(=O)N2 [10724/C03]	4.3%	16.5%	68.7%
O=C1Nc2ccc(S(=O)(=O)N3CCOCC3)cc2C1=Cc1ccc(F)cc1 [10717/F05]	–	-20.1%	21.5%
COc1cccc(O)c1C=C1C(=O)Nc2ccc(S(=O)(=O)Nc3ccc(C(F)(F)F)cc3)cc21 [10717/E10]	–	-6.1%	35.9%
CCOc1ccccc1C=C1C(=O)Nc2ccc(S(=O)(=O)N3CCOCC3)cc21 [10717/F02]	–	6.2%	30.4%
O=C1Nc2ccc(S(=O)(=O)Nc3ccc(C(F)(F)F)cc3)cc2C1=Cc1ccc[nH]1 [10717/E09]	–	-5.8%	19.2%
